Laboratory results published in the supplement of paper PMC11451515.

Test system: SEM cells
Experiment: cell viability relative to DMSO control; higher = less cytotoxic
Settings: 48 h
Procedure, shortened: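 In 1536-well plates, 5 μl of leukemia cells were seeded per well: 500 cells/well for NOMO1 or SEM and 1000 cells/well for P12-Ichikawa. Each line had first been adapted for at least four passages in each medium. Library compounds in DMSO were pin-dosed at 11 threefold concentrations between 47 μM and 0.79 nM, and CellTiter-Glo One luminescence was read after 48 h at 37°C. Viability is a per-plate percentage relative to DMSO wells, with cell-free wells as background.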

[1] = HPLM + 10% dialyzed FBS, 0.000781 µM
[2] = HPLM + 10% dialyzed FBS, 0.00234 µM
[3] = HPLM + 10% dialyzed FBS, 0.00702 µM
[4] = HPLM + 10% dialyzed FBS, 0.0211 µM
[5] = HPLM + 10% dialyzed FBS, 0.0632 µM
[6] = HPLM + 10% dialyzed FBS, 0.19 µM
[7] = HPLM + 10% dialyzed FBS, 0.569 µM
[8] = HPLM + 10% dialyzed FBS, 1.71 µM
[9] = HPLM + 10% dialyzed FBS, 5.12 µM
[10] = HPLM + 10% dialyzed FBS, 15.4 µM
[11] = HPLM + 10% dialyzed FBS, 46.1 µM
[12] = RPMI 5 mM glucose + 10% FBS, 0.000781 µM
[13] = RPMI 5 mM glucose + 10% FBS, 0.00234 µM
[14] = RPMI 5 mM glucose + 10% FBS, 0.00702 µM
[15] = RPMI 5 mM glucose + 10% FBS, 0.0211 µM
[16] = RPMI 5 mM glucose + 10% FBS, 0.0632 µM
[17] = RPMI 5 mM glucose + 10% FBS, 0.19 µM
[18] = RPMI 5 mM glucose + 10% FBS, 0.569 µM
[19] = RPMI 5 mM glucose + 10% FBS, 1.71 µM
[20] = RPMI 5 mM glucose + 10% FBS, 5.12 µM
[21] = RPMI 5 mM glucose + 10% FBS, 15.4 µM
[22] = RPMI 5 mM glucose + 10% FBS, 46.1 µM
[23] = RPMI 5 mM glucose + 10% dialyzed FBS, 0.000781 µM
[24] = RPMI 5 mM glucose + 10% dialyzed FBS, 0.00234 µM
[25] = RPMI 5 mM glucose + 10% dialyzed FBS, 0.00702 µM
[26] = RPMI 5 mM glucose + 10% dialyzed FBS, 0.0211 µM
[27] = RPMI 5 mM glucose + 10% dialyzed FBS, 0.0632 µM
[28] = RPMI 5 mM glucose + 10% dialyzed FBS, 0.19 µM
[29] = RPMI 5 mM glucose + 10% dialyzed FBS, 0.569 µM
[30] = RPMI 5 mM glucose + 10% dialyzed FBS, 1.71 µM
[31] = RPMI 5 mM glucose + 10% dialyzed FBS, 5.12 µM
[32] = RPMI 5 mM glucose + 10% dialyzed FBS, 15.4 µM
[33] = RPMI 5 mM glucose + 10% dialyzed FBS, 46.1 µM

| Compound | cell viability [1] | cell viability [2] | cell viability [3] | cell viability [4] | cell viability [5] | cell viability [6] | cell viability [7] | cell viability [8] | cell viability [9] | cell viability [10] | cell viability [11] | cell viability [12] | cell viability [13] | cell viability [14] | cell viability [15] | cell viability [16] | cell viability [17] | cell viability [18] | cell viability [19] | cell viability [20] | cell viability [21] | cell viability [22] | cell viability [23] | cell viability [24] | cell viability [25] | cell viability [26] | cell viability [27] | cell viability [28] | cell viability [29] | cell viability [30] | cell viability [31] | cell viability [32] | cell viability [33] |
| --- | --- | --- | --- | --- | --- | --- | --- | --- | --- | --- | --- | --- | --- | --- | --- | --- | --- | --- | --- | --- | --- | --- | --- | --- | --- | --- | --- | --- | --- | --- | --- | --- | --- |
| O=C(/C=C/c1cccnc1)NCCCCC1CCN(C(=O)c2ccccc2)CC1 | 76.5% | 86.3% | 22.7% | 9.57% | 7.6% | 6.37% | 6.62% | 6.08% | 6.74% | 6.78% | 5.79% | 103% | 65.1% | 14.8% | 7.35% | 21.9% | 5.86% | 6.67% | 6.71% | 5.95% | 5.65% | 3.92% | 105% | 32% | 13.8% | 7.49% | 7.08% | 6.77% | 6.47% | 6.21% | 6.4% | 7.09% | 4.78% |
| CN1C(=O)C(=C/2N(C(=O)N(C3CC3)C(=O)C2=C1/NC4=CC=C(I)C=C4F)C5=CC=CC(=C5)NC(C)=O)\C |  |  |  |  |  |  |  |  |  |  |  | 107% | 129% | 118% | 129% | 136% | 114% | 85.6% | 60.1% | 7.99% | 4.7% | 4.99% |  |  |  |  |  |  |  |  |  |  |  |
| Cc1ccc(Nc2nccc(N(C)c3ccc4c(C)n(C)nc4c3)n2)cc1[S+](N)(=O)[O-] | 83.9% | 89% | 88% | 105% | 98.2% | 91.7% | 91.3% | 91% | 75.3% | 61.3% | 18.1% | 87.2% | 92.9% | 95.7% | 109% | 86.3% | 91.6% | 77.5% | 79.6% | 63% | 38.9% | 7.79% | 95.9% | 83% | 99.7% | 105% | 92.3% | 101% | 90.2% | 81.8% | 57.5% | 49.2% | 14.8% |
| Cc1ccnc(N[S+](=O)([O-])c2ccc(NC(=O)Nc3ccc([S+](=O)([O-])Nc4nccc(C)n4)cc3)cc2)n1 | 77.9% | 90.3% | 89.8% | 90.1% | 86.8% | 38.8% | 35.6% | 10.6% | 8.5% | 7.84% | 6.37% | 86.6% | 73.1% | 79.4% | 75.2% | 64.8% | 9.99% | 8.62% | 6.14% | 6.29% | 5.29% | 3.81% | 77.8% | 86.7% | 87.7% | 85.8% | 77.5% | 21.9% | 19.7% | 8.34% | 8.01% | 7.59% | 5.43% |
